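Test compounds were applied to cells in 96-well plates for 48 hours at 5 doses. Abbreviation: GI50, concentration required for 50% inhibition of growth.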 Activity calls are given as the source filed them. Rule as the data show it: active = GI50 up to about 1.1 µM and inactive = higher.

Common to all, as to experiment: growth of human tumour cells (NCI), 48 h
Assay [1] deals with SK-MEL-5.
For assay [2], the system named is SF-539.
Assay [3] has as its system MCF7.
The test system of assay [4] is BT-549.
Assay [5] deals with M14.
The test system of assay [6] is SR.
Assay [7] deals with MDA-MB-231.
Assay [8] concerns SK-MEL-2.
Assay [9] concerns MDA-N.
The subject of assay [10] is SW-620.
Assay [11] has as its system SN12C.
Assay [12] has as its system Hs-578T.
The subject of assay [13] is NCI-H522.
In assay [14] the test system is MDA-MB-435.
Assay [15] has as its system A549.
The subject of assay [16] is HCC 2998.
Assay [17] has as its system NCI-H23.

With `Cc1ccnc(NC(=S)Nc2ccccc2Cl)c1`, the GI50 in assay [1], in assay [2], in [3], in assay [4], in assay [5] and in assay [6] was > 100 µM (inactive) each time. In addition, the GI50 in assay [7] is 2.23 µM (inactive); in assay [8] it was > 100 µM (inactive); in assay [9] it was > 100 µM (inactive); in [10], > 100 µM (inactive); in assay [11], > 100 µM (inactive); in assay [12] it was 44.7 µM (inactive). Moreover, the GI50 in assay [13] was 0.131 µM (active); in assay [14], > 100 µM (inactive); in [15] it was > 100 µM (inactive).

Regarding `CCCC(C(=O)Nc1cccc2nc[nH]c12)C(=O)OCC` (stereo unspecified), the GI50 in [2], in assay [3], in assay [4], in assay [5], in [6] and in [7] was > 100 µM (inactive) each time. In addition, the GI50 in assay [8] is > 100 µM (inactive); in assay [10] it was > 100 µM (inactive); in assay [11], > 100 µM (inactive); in [12] it was > 100 µM (inactive); in [13] it was 44.1 µM (inactive); in [14], > 100 µM (inactive). Further, the GI50 in [16] and in [15] was > 100 µM (inactive) each time.

On to `COC(=O)C1=C(C(=O)OC)SC2(S1)C1=C(CCC1)SC(C(=O)OC)=C2C(=O)OC`, for which the GI50 in assay [1] was 14.9 µM (inactive); in assay [2] it was 1.48 µM (inactive); in [17], 18.6 µM (inactive); in assay [3], 4.33 µM (inactive); in assay [4], 16 µM (inactive); in [5], 18.3 µM (inactive). For the same compound, the GI50 in assay [7] was 18.8 µM (inactive); in [8], 18.8 µM (inactive); in [9], 14.5 µM (inactive); in [10] it was 2.43 µM (inactive); in assay [11], 10.7 µM (inactive); in assay [12], 18.5 µM (inactive). Further, the GI50 in [13] is 2.99 µM (inactive); in [14], 12.9 µM (inactive); in assay [16] it was 16.3 µM (inactive); in assay [15] it was 16.5 µM (inactive).

On to `CCOC(=O)C(O)(NC(C)=O)C(F)(F)F` (stereo unspecified), for which the GI50 in [1], in [2], in assay [17], in assay [3], in assay [4] and in assay [5] was > 100 µM (inactive) each time. For the same compound, the GI50 in assay [6] is 7.24 µM (inactive); in assay [8] it was > 100 µM (inactive); in assay [9], > 100 µM (inactive); in [10], > 100 µM (inactive); in assay [11], > 100 µM (inactive); in assay [12], > 100 µM (inactive). Also, the GI50 in assay [13], in assay [14], in assay [16] and in assay [15] was > 100 µM (inactive) each time.

`COc1ccc(-c2c(C(C)=O)c(C)n(C3OC(CO)C(O)C(O)C3O)c(=S)c2C#N)cc1` (stereo unspecified): the GI50 was 48.8 µM (inactive) in assay [1]; 36.1 µM (inactive) in assay [2]; 68.1 µM (inactive) in assay [17]; > 100 µM (inactive) in assay [3]; > 100 µM (inactive) in assay [4]; 60.1 µM (inactive) in [5]. The GI50 in [6] is 48.8 µM (inactive); in assay [7], > 100 µM (inactive); in assay [9] it was 71.6 µM (inactive); in [10], 78.5 µM (inactive); in [11], 50.6 µM (inactive); in assay [12], 98.2 µM (inactive). In addition, the GI50 is 72.6 µM (inactive) in assay [14] and > 100 µM (inactive) in [15].

For `COC(=O)CNCC1OC2OC(C)(C)OC2C1N=[N+]=[N-]` (stereo unspecified), the GI50 in assay [1], in assay [2], in assay [3], in assay [4], in assay [6] and in assay [8] was > 100 µM (inactive) in each case. The GI50 in assay [9], in assay [10], in assay [11], in assay [12], in assay [14] and in [15] was > 100 µM (inactive) in each case.

Regarding `O=C(/C=C/c1ccccc1O)/C=C/c1ccccc1O`, the GI50 in [1] was 1.37 µM (inactive); in assay [2] it was 1.55 µM (inactive); in assay [17], 1.53 µM (inactive); in assay [4] it was 1.24 µM (inactive); in assay [5], 1.71 µM (inactive); in assay [6], 0.526 µM (active). Further, the GI50 is 2.48 µM (inactive) in [7]; 9.25 µM (inactive) in [8]; 1.56 µM (inactive) in [9]; 0.966 µM (active) in [10]; 1.72 µM (inactive) in assay [11]; 2.7 µM (inactive) in assay [12]. Besides, the results for the GI50 in [14] and in assay [15] were 1.95 µM (inactive) and 2.21 µM (inactive), respectively.

As to `O=C(O)CNCCc1ccccc1`, the GI50 in [1], in [17], in assay [3], in assay [4], in [5] and in assay [6] was > 100 µM (inactive) throughout. Besides, the GI50 in assay [7], in assay [8], in [9], in assay [10], in [11] and in [12] was > 100 µM (inactive) each time. The GI50 in assay [13], in assay [14] and in assay [15] was > 100 µM (inactive) throughout.

Take `CC[C@@H]1CC[C@@H]2[C@H](CC[C@]3(C)[C@@H](OC(C)=O)CC[C@@H]23)[C@H]1COC(C)=O`: the GI50 was 18.3 µM (inactive) in assay [1]; 24.4 µM (inactive) in assay [2]; 27.2 µM (inactive) in assay [17]; 31.6 µM (inactive) in assay [3]; 32.1 µM (inactive) in assay [4]; 25.4 µM (inactive) in assay [5]. Further, the GI50 in assay [7] was 20 µM (inactive); in [8], 16.4 µM (inactive); in assay [9] it was 24.9 µM (inactive); in assay [10] it was 31.8 µM (inactive); in assay [11], 22.9 µM (inactive); in assay [12] it was 25.1 µM (inactive). The GI50 in [13] is 23.1 µM (inactive); in assay [14] it was 22.5 µM (inactive); in assay [16], 13.4 µM (inactive); in [15] it was 22.1 µM (inactive).

Take `COC1OC(C(C)O)C2OC(C)(C)OC12` (stereo unspecified): the GI50 in assay [1], in [2], in assay [17], in assay [3], in assay [4] and in [5] was > 100 µM (inactive) throughout. The GI50 in assay [6], in assay [7], in assay [8], in assay [9], in assay [10] and in assay [11] was > 100 µM (inactive) in each case. In addition, the GI50 in [12], in assay [13], in assay [14] and in assay [15] was > 100 µM (inactive) throughout.

In the case of `N=C1NC(c2ccc(Cl)cc2)=CC(c2cccc(Cl)c2)S1` (stereo unspecified), the GI50 is 27 µM (inactive) in [1]; 48.8 µM (inactive) in assay [2]; 34.8 µM (inactive) in [17]; 24.8 µM (inactive) in assay [3]; 63.5 µM (inactive) in [4]; 48.4 µM (inactive) in assay [5]. Besides, the GI50 in assay [6] is 28.7 µM (inactive); in [8], 20.6 µM (inactive); in [9], 21.2 µM (inactive); in assay [10] it was 34.5 µM (inactive); in assay [11] it was 27.7 µM (inactive); in [12] it was 26.5 µM (inactive). The GI50 is 20.1 µM (inactive) in [13], 18.2 µM (inactive) in assay [14], 27.7 µM (inactive) in assay [16] and 24.7 µM (inactive) in assay [15].

For the compound `CCOC(=O)c1sc2nc(SC)nc3c2c1NCN3C`, the GI50 in assay [1] is 51.5 µM (inactive); in assay [17] it was 22 µM (inactive); in assay [4], 35.7 µM (inactive); in assay [5] it was 76.9 µM (inactive); in assay [7], 28.1 µM (inactive); in assay [8] it was 86.1 µM (inactive). Also, the GI50 in [9] was > 100 µM (inactive); in [11], 30.6 µM (inactive); in assay [12], 20.1 µM (inactive); in assay [14] it was > 100 µM (inactive); in [16] it was 62.1 µM (inactive); in assay [15] it was 16.9 µM (inactive).

Regarding `COc1ccc(C[C@@H]2OC3(C=CC(=O)CC3Sc3ccccc3)O[C@H]2Cc2ccc(OC)cc2)cc1` (stereo partly specified), the GI50 is 1.37 µM (inactive) in [1]; 1.64 µM (inactive) in assay [2]; 1.71 µM (inactive) in [17]; 0.388 µM (active) in [3]; 0.223 µM (active) in [4]; 1.16 µM (inactive) in assay [5]. The GI50 in [6] is 0.187 µM (active); in assay [7] it was 2.5 µM (inactive); in [8], 1.53 µM (inactive); in [9], 1.52 µM (inactive); in [10] it was 0.303 µM (active); in assay [11], 1.61 µM (inactive). The GI50 in assay [12] is 1.41 µM (inactive); in assay [14], 1.9 µM (inactive); in assay [15], 3.23 µM (inactive).

The record behind these values is ChEMBL document CHEMBL1201862, “PubChem BioAssay data set” (2004).
